Several values for one entry are separate records, joined by “and”; a condition that tells them apart may be missing. Equal values may be shown once.
Tests used:
[1] = system: coagulation factor X mRNA; test: mRNA expression of coagulation factor X, real-time quantitative RT-PCR, hepatic cell lines; format: cell-based; conditions: ribavirin 150 μg/ml in the presence of interferon α-2b 0.75 μg/ml; data not shown
Procedure: (§1) The mRNA expression levels of the coagulation factors VII and X and prothrombin were measured according to the protocols of real-time quantitative RT-PCR with ABI Prism 7700 Sequence Detection (Perkin Elmer Biosystems, Foster City, Calif., USA) and SYBR Green PCR kit (Perkin Elmer Biosystems). The real-time quantitative RT-PCR was repeated twice. The following […] were used for determination of the mRNA of the genes.

[2] = system: HCV-positive patients with hemophilia; test: Bleeding requiring treatment and use of clotting factors in hemophilia patients (patient logs); format: in vivo, human
Procedure: (§2) Ribavirin was orally administered, while the interferon was intravenously administered.
(§3) Interferon α-2b alone was administered to the patients Nos. 1, 2, 3, and 5, prior to the combined administration of this Example 1. In the interferon single dosing period, the interferon was administered to the patients Nos. 1, 2, 3, and 5 every day with the dosage of 6 MU (million units) per day for the first 2 weeks and 3 times per week for the subsequent 22 weeks. […] In the combined administration of this Example 1, Intron A was administered to all the patients every day with the dosage of 6 MU per day for the first 2 weeks and 3 times per week for the subsequent 22 weeks.
The use of clotting factors was assessed by patient logs. The clotting factors are generally not used for patients with mild hemophilia. The doses (mean value) of the clotting factors before the combined dosing period of this Example 1, during the combined dosing period, and after the combined dosing period were evaluated. A significant difference at P<0.05 was evaluated by (paired) t-test. Ability to perform activities of daily living was assessed by interview.

[3] = system: coagulation factor X; test: Coagulation activity of coagulation factor X in the plasma; format: in vivo, human; conditions: before and after the start of the combined dosing, data not shown
[4] = system: HCV; test: Eradication of HCV in HCV-positive patients with hemophilia; format: in vivo, human
Procedure: as §2, §3
The HCV-RNA level was measured at the start of treatment with Amplicor HCV Assay, version 2.0 (Roche Diagnostic Systems).
Eradication of HCV was considered positive when the absence of serum HCVRNA was maintained for 24 weeks after the treatment was completed.

[5] = system: coagulation factor VII; test: Coagulation activity of coagulation factor VII in the plasma of hemophilia patients
[6] = system: prothrombin time (PT) in the plasma; test: Prothrombin time (PT) in the plasma of chronic hepatitis C patients with or without hemophilia; format: in vivo, human; conditions: for PT Increase Rate: 12 weeks after start versus before; for PT After Therapy: 12 weeks after start
Procedure: Of these patients, 9 patients were with hemophilia and 27 hepatitis patients were without hemophilia. Pegintron was administered to all the patients once a week with the dosage of 1.5 μg/Kg for 48 weeks, whereas Rebetol was simultaneously administered to the 9 hemophilia patients with the dosage of Administration Example 1 (600 mg to 800 mg per day).
The prothrombin time (PT) in the plasma was measured for the patients before the start of the dosing and 12 weeks after the start of the dosing, for the purpose of evaluation of the coagulation activity.

[7] = system: coagulation factor VII mRNA in HepG2 cell line; test: mRNA expression of coagulation factor VII, real-time quantitative RT-PCR, HepG2 cell line; format: cell-based, human; conditions: ribavirin 150 μg/ml in the presence of interferon α-2b 0.75 μg/ml, 48 hours, p<0.02
Procedure: as §1

[8] = system: prothrombin mRNA; test: mRNA expression of prothrombin, real-time quantitative RT-PCR, hepatic cell lines; format: cell-based; conditions: ribavirin 150 μg/ml in the presence of interferon α-2b 0.75 μg/ml; data not shown
Procedure: as §1

[9] = system: coagulation factor VII mRNA in hepatic parenchymal cell line; test: mRNA expression of coagulation factor VII, real-time quantitative RT-PCR, normal hepatic parenchymal cell line; format: cell-based; conditions: ribavirin 150 μg/ml in the presence of interferon α-2b 0.75 μg/ml, 48 hours, p<0.01
Procedure: as §1

[10] = system: HCV-positive patients with hemophilia; test: Bleeding requiring treatment and use of clotting factors in hemophilia patients (patient logs); format: in vivo, human; conditions: 47 hemophilia patients with hepatitis C
[11] = 4 weeks after start of combined dosing, 9 patients

Q: With `NC(=O)c1ncn([C@@H]2O[C@H](CO)[C@@H](O)[C@H]2O)n1` [ribavirin, 1-β-D-ribofuranosyl-1,2,4-triazole-3-carboxamide] as the compound, how does the “mRNA induction of the coagulation factor X” value [1] read?
A: No significant induction

Q: What about the “monthly mean dosage of the clotting factors in the combined dosing period” value ([2]; 5 patients with moderate or severe hemophilia, ribavirin + interferon α-2b, standard deviation 1488, 3783 U (SD 2646) in the 6 months before, P<0.03) of the same compound?
A: 1605 U

Q: And the “monthly mean dosage of the clotting factors in the 6-month period after the combined dosing period” value ([2]; 5 patients with moderate or severe hemophilia, standard deviation 1528, 3783 U (SD 2646) in the 6 months before, P<0.06)?
A: 1667 U

Q: What about the “Times of Bleeding Requiring Treatment, After Therapy” value ([2]; monthly mean bleeding frequency treated with clotting factors, after the combined dosing period of ribavirin and interferon α-2b, patient (Nos. 1, 2, 3, 5, 8)) of the same compound?
A: 0.7 and 0.0 and 1.6 and 4.1 and 2.2

Q: And the “Times of Bleeding Requiring Treatment, During Therapy” value ([2]; monthly mean bleeding frequency treated with clotting factors, combined dosing period of ribavirin and interferon α-2b, patient (Nos. 1, 2, 3, 5, 8))?
A: 0.2 and 0.8 and 0.7 and 3.0 and 2.6

Q: What about the “bleeding tendency in the combined dosing period compared with the interferon single dosing period” value ([2]; patients Nos. 1, 2, 3 and 5, ribavirin + interferon α-2b) of the same compound?
A: significantly reduced

Q: And the “change in coagulation activity of the coagulation factor X” value [3]?
A: No significant change

Q: What about the “Eradication of HCV” value ([4]; oral ribavirin 600-800 mg/day combined with interferon α-2b (Intron A) for 24 weeks, YES = absence of serum HCV-RNA maintained 24 weeks after treatment, per patient (Nos. 1-8)) of the same compound?
A: YES

Q: And the “Factor VII coagulation activity increase in the 2 patients without significant increase” value ([5]; 2 of the 9 patients (one HIV positive, one hepatitis C and hepatitis B virus positive))?
A: 5% and 8%

Q: What about the “Factor VII coagulation activity increase, maximum” value [5, 11] of the same compound?
A: 28%

Q: What about the “Factor VII coagulation activity increase, minimum” value [5, 11] of the same compound?
A: 5%

Q: What about the “Factor VII Clotting Activity Increase Rate” value ([5]; 4 weeks after start versus before start of combined dosing, 9 hemophilia patients, p<0.04) of the same compound?
A: 15.7 ± 8.8%

Q: What about the “Factor VII Clotting Activity After Start of Therapy” value ([5]; plasma, 4 weeks after start of combined dosing (ribavirin 600-800 mg/day + interferon α-2b), 9 hemophilia patients, before start 86.3 ± 7.6%) of the same compound?
A: 102.0 ± 10.3%

Q: What about the “PT Increase Rate” value ([6]; Hemophilia Group n = 9) of the same compound?
A: 9.4 ± 8.4%

Q: And the “PT After Therapy” value ([6]; Hemophilia Group n = 9, Rebetol 600-800 mg/day + Pegintron 1.5 μg/Kg once a week, before therapy 90.0 ± 12.2%)?
A: 99.4 ± 14.3%

Q: What about the “PT Increase Rate” value ([6]; Non-Hemophilia Group n = 27) of the same compound?
A: 5.4 ± 12.6%

Q: And the “PT After Therapy” value ([6]; Non-Hemophilia Group n = 27, Pegintron 1.5 μg/Kg once a week, combined administration, before therapy 94.9 ± 14.4%)?
A: 100.0 ± 16.8%

Q: What about the “mRNA induction of the coagulation factor VII” value [7] of the same compound?
A: about 3 times

Q: What about the “mRNA induction of prothrombin” value [8] of the same compound?
A: No significant induction

Q: And the “mRNA induction of the coagulation factor VII” value [9]?
A: about 4 times

Q: Which “Elimination of HCV in interferon single dosing period” value ([4]; interferon α-2b alone, 6 MU per day for 2 weeks then 3 times per week for 22 weeks, patients Nos. 1, 2, 3, 5) does the source give for interferon α-2b here?
A: not eliminated

Q: And the “reduction of the bleeding tendency by single interferon dosing” value [10]?
A: No such reduction

Reference: patent publication US8217014B2, “Pharmaceutical composition for treatment of blood clotting disorder” (National University Corporation Nagoya University, priority 2006, dated 2012)
